Measurements from article PMC12310023 (PLOS Neglected Tropical Diseases, 2025).

Assays:
5-HT2B = target: T1, 5-HT2B (Homo sapiens, UniProt P41595); test: Cerep cellular and nuclear receptor functional assay; assay type: cell-based
T1 construct: Cerep (Eurofins, France)

[1] = Liver microsome stability; conditions: monkey, pooled liver microsomes
[2] = Liver microsome stability; conditions: human, pooled liver microsomes
[3] = HCT-8 host cell count (Calibr); conditions: human
zebrafish embryos = test: Zebrafish developmental safety assay; conditions: 4 days
[4] = Plasma protein binding, equilibrium dialysis; conditions: rat
CYP1A2 = target: T2, CYP1A2 (Homo sapiens, UniProt P05177); test: CYP reaction phenotyping, recombinant supersomes
T2 sequence (P05177 1-516): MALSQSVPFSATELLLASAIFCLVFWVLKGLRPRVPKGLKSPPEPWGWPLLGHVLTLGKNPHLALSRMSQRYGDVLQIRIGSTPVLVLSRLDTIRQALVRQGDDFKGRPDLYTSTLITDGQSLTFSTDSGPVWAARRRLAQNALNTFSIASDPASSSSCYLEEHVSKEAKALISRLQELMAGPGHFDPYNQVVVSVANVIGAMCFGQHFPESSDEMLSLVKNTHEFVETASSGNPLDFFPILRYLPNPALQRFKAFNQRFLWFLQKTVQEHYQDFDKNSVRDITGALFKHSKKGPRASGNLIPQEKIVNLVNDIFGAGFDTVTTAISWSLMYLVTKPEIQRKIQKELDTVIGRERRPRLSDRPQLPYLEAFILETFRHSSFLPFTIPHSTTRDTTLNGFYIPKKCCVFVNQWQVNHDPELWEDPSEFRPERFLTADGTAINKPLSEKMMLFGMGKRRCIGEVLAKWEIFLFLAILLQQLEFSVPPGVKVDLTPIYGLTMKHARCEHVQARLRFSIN

CYP2C8 = target: T3, CYP2C8 (Homo sapiens, UniProt P10632); test: CYP reaction phenotyping, recombinant supersomes
T3 sequence (P10632 1-490): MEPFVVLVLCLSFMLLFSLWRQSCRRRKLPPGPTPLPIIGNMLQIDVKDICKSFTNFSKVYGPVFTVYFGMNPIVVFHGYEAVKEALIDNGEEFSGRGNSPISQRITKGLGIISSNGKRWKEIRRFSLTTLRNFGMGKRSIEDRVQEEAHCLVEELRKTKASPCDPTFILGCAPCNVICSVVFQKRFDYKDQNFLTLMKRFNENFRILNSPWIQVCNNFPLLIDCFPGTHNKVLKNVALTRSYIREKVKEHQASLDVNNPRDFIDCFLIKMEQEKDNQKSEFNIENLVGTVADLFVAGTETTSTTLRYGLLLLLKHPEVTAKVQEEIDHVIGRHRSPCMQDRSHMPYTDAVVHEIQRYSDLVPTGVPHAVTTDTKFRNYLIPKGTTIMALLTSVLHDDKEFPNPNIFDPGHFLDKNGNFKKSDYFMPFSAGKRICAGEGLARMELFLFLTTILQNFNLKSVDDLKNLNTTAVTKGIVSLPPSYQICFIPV

A3 = target: T4, A3 (Homo sapiens, UniProt P0DMS8); test: Cerep cellular and nuclear receptor functional assay
T4 sequence (P0DMS8 1-318): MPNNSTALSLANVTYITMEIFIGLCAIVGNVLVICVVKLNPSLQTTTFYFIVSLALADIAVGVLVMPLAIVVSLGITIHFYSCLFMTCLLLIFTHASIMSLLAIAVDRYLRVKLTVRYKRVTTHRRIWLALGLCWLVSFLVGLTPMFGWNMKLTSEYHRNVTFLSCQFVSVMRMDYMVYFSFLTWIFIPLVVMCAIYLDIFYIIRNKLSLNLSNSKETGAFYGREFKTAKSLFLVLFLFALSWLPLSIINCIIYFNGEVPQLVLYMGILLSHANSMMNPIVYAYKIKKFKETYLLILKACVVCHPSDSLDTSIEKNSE

[5] = Balb/c, mouse, plasma, iv, 1 mg/kg
[6] = Balb/c, mouse, plasma, po, 30 mg/kg

T1 sequence (P41595 whole entry): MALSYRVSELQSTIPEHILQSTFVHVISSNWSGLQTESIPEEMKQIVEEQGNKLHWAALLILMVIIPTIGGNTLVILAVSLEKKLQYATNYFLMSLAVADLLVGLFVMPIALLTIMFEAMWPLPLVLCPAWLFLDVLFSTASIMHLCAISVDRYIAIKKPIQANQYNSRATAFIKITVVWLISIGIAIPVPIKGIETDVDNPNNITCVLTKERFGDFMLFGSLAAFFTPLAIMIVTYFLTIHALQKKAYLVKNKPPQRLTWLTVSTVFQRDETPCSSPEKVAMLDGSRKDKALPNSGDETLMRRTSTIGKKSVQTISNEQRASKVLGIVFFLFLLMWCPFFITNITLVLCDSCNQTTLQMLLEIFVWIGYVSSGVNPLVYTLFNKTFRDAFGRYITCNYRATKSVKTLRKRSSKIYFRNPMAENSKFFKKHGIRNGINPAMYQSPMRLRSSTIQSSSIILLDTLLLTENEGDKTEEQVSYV

CC1(C)Cn2nc(-c3ccc4cc(OC5CC5)ccc4c3)c(C(N)=O)c2NC1O (stereo not shown) [M2]
agonist effect (5-HT2B): no effect up to 100 μM
IC50 (5-HT2B; read-out: IC50, antagonist effect): 20 µM
C0 (Mouse PK, Balb/c; [5]): 4.2 ± 1.3 µM
Vd (Mouse PK, Balb/c; [5]): 0.9 L/kg
clearance (Mouse PK, Balb/c; [5]): 6.2 mL/min/kg
half-life (Mouse PK, Balb/c; [5]): 1.77 h
Cmax (Mouse PK, Balb/c; [6]): 13.1 ± 1.3 µM
Tmax (Mouse PK, Balb/c; [6]): 1.5 h
bioavailability (Mouse PK, Balb/c; [6]): 43%
half-life (Mouse PK, Balb/c; [6]): 3.07 h
AUC0-inf (Mouse PK, Balb/c; M2 IV 1 mg/kg): 400 ± 42 µmol·min/L
AUC0-inf (Mouse PK, Balb/c; M2 PO 30 mg/kg): 5185 ± 1500 µmol·min/L
M2 AUC0-inf (Mouse PK, Balb/c; after BKI-1708 IV 3 mg/kg): 988 ± 162 µmol·min/L
M2 AUC0-inf (Mouse PK, Balb/c; after BKI-1708 PO 15 mg/kg): 6445 ± 654 µmol·min/L
CLint scaled [1]: 55 mL/min/kg
half-life [1]: 0.95 h
microsomal CLint [1]: 48.6 µL/min/mg
CLint scaled [2]: < 25 mL/min/kg
half-life [2]: > 2 h
microsomal CLint [2]: < 23.1 µL/min/mg
CC50 ([3]; CC50, HCT-8 cells infected with BGF Cp, Replicate 1): > 25 µM
CC50 ([3]; CC50, HCT-8 cells infected with BGF Cp, Replicate 2): > 25 µM
CC50 ([3]; CC50, HCT-8 cells infected with Ch, Replicate 1): > 25 µM
CC50 ([3]; CC50, HCT-8 cells infected with Ch, Replicate 2): > 25 µM
CC50 ([3]; CC50, HCT-8 cells infected with UA Nluc Cp, Replicate 1): > 25 µM
CC50 ([3]; CC50, HCT-8 cells infected with UA Nluc Cp, Replicate 2): > 25 µM
concentration up to which zebrafish embryo development was not affected (zebrafish embryos): 20 µM
fraction unbound [4]: 0.06
% contribution (CYP1A2): 47.0%
CLint (CYP1A2): 0.115 µL/min/pmol
% contribution (CYP2C8): 0.0%
CLint (CYP2C8): <0.029 µL/min/pmol
EC50 (A3): > 10 µM
IC50 (A3): 43 µM
